Where no end group is shown, it is not given here.

Here are results for two compounds from article PMC6315362, “Cytotoxic Potential of the Novel Horseshoe Crab Peptide Polyphemusin III” (Marine Drugs, 2018).

The test system of assay [1] is HL-60 cells. Put plainly: Annexin V-FITC/propidium iodide double staining and flow cytometry. In kind it is cell-based, human. The following applies: HL-60, 4 h of incubation, 50 μM Z-VAD-FMK. From the text:
To further investigate the effect of PM III on human cells, we performed annexin V-FITC/propidium iodide double staining with subsequent flow cytometric analysis. Annexin V-FITC binds to phosphatidylserine, which is exposed on the outer leaflet of the cellular plasma membrane at the initial stages of apoptosis, whereas propidium iodide (PI) preferentially stains nuclei of dead cells. Therefore, a combination of annexin V-FITC and PI assays allows differentiation between early apoptotic and late apoptotic/necrotic cell populations. PM III was used at two final concentrations of 2.5 and 5 μM. In order to elucidate the predominant mechanism of the PM III action, we applied a widely used caspase inhibitor, Z-VAD-FMK [23].
Cell death analysis with fluorescein isothiocyanate conjugated annexin V (annexin V-FITC)/propidium iodide double staining and dead cells counting with flow cytometry were performed 4 h after addition of polyphemusin III up to a final concentration of 2.5 or 5 μM. The Annexin V-FITC Apoptosis Detection Kit (BD Biosciences, Franklin Lakes, NJ, USA) was used according to the manufacturer’s protocol on a NovoCyte flow cytometer (ACEA Biosciences, San Diego, CA, USA). Each experiment was performed in triplicate. The apoptosis inducer camptothecin (Sigma-Aldrich, St. Louis, MO, USA) and the general caspase inhibitor, Z-VAD-FMK (BD Biosciences, Franklin Lakes, NJ, USA), were used. All flow cytometry experiments were performed twice.

Assay [2] has as its system Gram-negative and Gram-positive bacteria. The following applies: synthetic PM I against Gram-negative and Gram-positive bacteria; cited from earlier work. On the procedure:
Our experimental data for the obtained recombinant PM I are in line with those obtained earlier for synthetic PM I against Gram-negative and Gram-positive bacteria (with reported MICs not exceeding 1 μM).

`CC[C@@]1(O)C(=O)OCc2c1cc1n(c2=O)Cc2cc3ccccc3nc2-1` [campthotecin, camptothecin]: the “influence of the caspase inhibitor Z-VAD-FMK on the effect of the substance (annexin V-FITC/PI staining)” value in assay [1] is “totally abrogated”.

For “synthetic PM I: synthetic polyphemusin I of earlier reports (RRWCFRVCYRGFCYRKCR; ends and bridges not checked; cysteine pairing not given here; UniProt P14215 1-18, looked up)”, in assay [2], the MICs was not above 1 µM.
